In patent US12668600B2 (Kumquat Biosciences Inc., priority 2023, dated 2026) one finds IC50 data, which are given here for 13 molecules.

Structures are written as SMILES. pIC50: −log10 of the molar value.

Common to all, as to assay type: biochemical
The target in one test is T1, KRAS WT (Homo sapiens, UniProt P01116).
T1 construct: made in house; host or cells: E. coli, e.g. BL21 (DE3)
The test can be described thus: HTRF KRAS-SOS1 interaction assay, wildtype KRAS. The note with it: binned ≤2 μM / >2 μM, read-out: Inhibition of KRAS WT (IC50). In a few lines: (§1)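 Read-out: HTRF ratio 665/620 nm after ≥10 min incubation of compound with GST-KRAS/anti-GST-Eu and His-hSOS1/anti-6His-XL665. Duplicate dose series, 10 μM down to 0.01 μM. Buffer HEPES pH 7.4, NaCl, DTT, BSA, Igepal.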

The next test deals with T2, KRAS G12V (Homo sapiens, UniProt P01116, G12V).
T2 construct: made in house; host or cells: E. coli, e.g. BL21 (DE3)
The test can be described thus: HTRF KRAS-SOS1 interaction assay, KRAS G12V. Conditions: binned ≤2 μM / >2 μM, read-out: Inhibition of KRAS G12V (IC50). The essentials: as §1

A further test has as its target T3, KRAS G12D (Homo sapiens, UniProt P01116, G12D).
T3 construct: made in house; host or cells: E. coli, e.g. BL21 (DE3)
The test can be described thus: HTRF KRAS-SOS1 interaction assay, KRAS G12D. The note with it: binned ≤2 μM / >2 μM, read-out: Inhibition of KRAS G12D (IC50). In a few lines: as §1

In another test the target is T4, KRAS G12S (Homo sapiens, UniProt P01116, G12S).
T4 construct: made in house; host or cells: E. coli, e.g. BL21 (DE3)
In words: HTRF KRAS-SOS1 interaction assay, KRAS G12S. The note with it: binned ≤2 μM / >2 μM, read-out: Inhibition of KRAS G12S (IC50). In a few lines: as §1

T1 sequence (P01116 1-188 isoform P01116-2): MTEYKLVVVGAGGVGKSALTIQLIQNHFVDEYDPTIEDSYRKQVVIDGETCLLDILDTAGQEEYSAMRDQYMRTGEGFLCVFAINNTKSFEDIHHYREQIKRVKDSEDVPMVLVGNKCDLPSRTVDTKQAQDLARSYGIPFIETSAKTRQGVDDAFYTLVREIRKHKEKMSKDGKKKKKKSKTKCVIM
T3 sequence (P01116 1-188 isoform P01116-2 G12D): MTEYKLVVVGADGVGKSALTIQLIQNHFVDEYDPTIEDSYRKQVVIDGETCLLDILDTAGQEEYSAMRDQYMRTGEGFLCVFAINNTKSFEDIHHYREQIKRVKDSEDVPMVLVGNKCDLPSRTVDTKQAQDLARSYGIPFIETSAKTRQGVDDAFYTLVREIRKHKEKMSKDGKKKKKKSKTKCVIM
T4 sequence (P01116 1-188 isoform P01116-2 G12S): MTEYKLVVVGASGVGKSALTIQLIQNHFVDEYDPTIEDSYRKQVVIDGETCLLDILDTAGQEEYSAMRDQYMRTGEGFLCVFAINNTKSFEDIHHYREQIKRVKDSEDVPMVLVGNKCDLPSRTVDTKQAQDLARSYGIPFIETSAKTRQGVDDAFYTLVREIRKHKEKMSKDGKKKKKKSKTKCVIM
T2 sequence (P01116 1-188 isoform P01116-2 G12V): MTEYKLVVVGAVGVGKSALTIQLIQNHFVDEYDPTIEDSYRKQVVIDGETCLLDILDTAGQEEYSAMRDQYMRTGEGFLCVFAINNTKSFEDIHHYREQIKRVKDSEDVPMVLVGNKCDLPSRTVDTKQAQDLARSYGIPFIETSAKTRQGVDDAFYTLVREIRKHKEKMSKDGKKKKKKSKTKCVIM

Take `CNc1sc2c(F)ccc(-c3c(C(F)(F)F)c4c5c(nc(OC[C@@]67CCCN6C[C@H](F)C7)nc5c3F)N([C@H](CCC3CCOCC3)c3cccnc3N)CCO4)c2c1C#N` [Compound 709, 4-(4-((R)-1-(2-aminopyridin-3-yl)-3-(tetrahydro-2H-pyran-4-yl)propyl)-10-fluoro-2-(((2R,7aS)-2-fluorotetrahydro-1H-pyrrolizin-7a(5H)-yl)methoxy)-8-(trifluoromethyl)-5,6-dihydro-4H-[1,4]oxazepino[5,6,7-de]quinazolin-9-yl)-7-fluoro-2-(methylamino)benzo[b]thiophene-3-carbonitrile]: the pIC50 on KRAS WT, at KRAS G12V, at KRAS G12D and on KRAS G12S was at least 5.70 throughout.

In the case of `C[C@@H]1CN(CC2(COc3nc4c5c(c(C(F)(F)F)c(-c6ccc(F)c7sc(N)c(C#N)c67)c(F)c5n3)OCCN4[C@H](C)c3cccnc3N)CC2)C[C@H](C)O1` [Compound 710, 2-amino-4-(4-((R)-1-(2-aminopyridin-3-yl)ethyl)-2-((1-(((2S,6R)-2,6-dimethylmorpholino)methyl)cyclopropyl)methoxy)-10-fluoro-8-(trifluoromethyl)-5,6-dihydro-4H-[1,4]oxazepino[5,6,7-de]quinazolin-9-yl)-7-fluorobenzo[b]thiophene-3-carbonitrile], the negative-log IC50 (pIC50) on KRAS WT was at least 5.70; on KRAS G12V, at least 5.70; at KRAS G12D, below 5.70; on KRAS G12S, at least 5.70.

For `C[C@H](c1cc(Cl)cnc1N)N1CCOc2c(C(F)(F)F)c(-c3ccc(F)c4sc(N)c(C#N)c34)c(F)c3nc(OC[C@@]45CCCN4C[C@@]4(CC4(F)F)C5)nc1c23` [Compound 713, 2-amino-4-(4-((R)-1-(2-amino-5-chloropyridin-3-yl)ethyl)-2-(((1S,7a′S)-2,2-difluorodihydro-1′H,3′H-spiro[cyclopropane-1,2′-pyrrolizin]-7a′(5′H)-yl)methoxy)-10-fluoro-8-(trifluoromethyl)-5,6-dihydro-4H-[1,4]oxazepino[5,6,7-de]quinazolin-9-yl)-7-fluorobenzo[b]thiophene-3-carbonitrile], the pIC50 at KRAS WT, on KRAS G12V, on KRAS G12D and at KRAS G12S was at least 5.70 throughout.

Turning to `C[C@H](c1cccnc1Cl)N1CCOc2c(C(F)(F)F)c(-c3ccc(F)c4sc(N)c(C#N)c34)c(F)c3nc(OC[C@@]45CCCN4C[C@H](F)C5)nc1c23` [Compound 730, 2-amino-4-(4-((R)-1-(2-chloropyridin-3-yl)ethyl)-10-fluoro-2-(((2R,7aS)-2-fluorotetrahydro-1H-pyrrolizin-7a(5H)-yl)methoxy)-8-(trifluoromethyl)-5,6-dihydro-4H-[1,4]oxazepino[5,6,7-de]quinazolin-9-yl)-7-fluorobenzo[b]thiophene-3-carbonitrile], the pIC50 at KRAS WT, on KRAS G12V, on KRAS G12D and on KRAS G12S was at least 5.70 each time.

As to `N#Cc1c(N)sc2c(F)ccc(-c3c(Cl)c4c5c(nc(OC[C@@]67CCCN6C[C@H](F)C7)nc5c3F)N([C@H](/C=C/C(F)F)c3cccnc3N)CCO4)c12` [Compound 731, 2-amino-4-(4-((R,E)-1-(2-aminopyridin-3-yl)-4,4-difluorobut-2-en-1-yl)-8-chloro-10-fluoro-2-(((2R,7aS)-2-fluorotetrahydro-1H-pyrrolizin-7a(5H)-yl)methoxy)-5,6-dihydro-4H-[1,4]oxazepino[5,6,7-de]quinazolin-9-yl)-7-fluorobenzo[b]thiophene-3-carbonitrile], the pIC50 at KRAS WT, at KRAS G12V, on KRAS G12D and at KRAS G12S was at least 5.70 in each case.

Consider `N#Cc1c(N)sc2c(F)ccc(-c3c(Cl)c4c5c(nc(OC[C@@]67CCCN6C[C@H](F)C7)nc5c3F)N([C@H](C/C=C/C(F)(F)F)c3cccnc3N)CCO4)c12` [Compound 733, 2-amino-4-(4-((R,E)-1-(2-aminopyridin-3-yl)-5,5,5-trifluoropent-3-en-1-yl)-8-chloro-10-fluoro-2-(((2R,7aS)-2-fluorotetrahydro-1H-pyrrolizin-7a(5H)-yl)methoxy)-5,6-dihydro-4H-[1,4]oxazepino[5,6,7-de]quinazolin-9-yl)-7-fluorobenzo[b]thiophene-3-carbonitrile], for which the pIC50 on KRAS WT, on KRAS G12V, at KRAS G12D and at KRAS G12S was at least 5.70 each time.

For `Cc1ccc([C@@H](C)N2CCOc3c(Cl)c(-c4ccc(F)c5sc(N)c(C#N)c45)c(F)c4nc(OC[C@@]56CCCN5C[C@H](F)C6)nc2c34)c(N)n1` [Compound 736, 2-amino-4-(4-((R)-1-(2-amino-6-methylpyridin-3-yl)ethyl)-8-chloro-10-fluoro-2-(((2R,7aS)-2-fluorotetrahydro-1H-pyrrolizin-7a(5H)-yl)methoxy)-5,6-dihydro-4H-[1,4]oxazepino[5,6,7-de]quinazolin-9-yl)-7-fluorobenzo[b]thiophene-3-carbonitrile], the pIC50 on KRAS WT, on KRAS G12V, at KRAS G12D and on KRAS G12S was at least 5.70 in each case.

With `C[C@H](c1cc(C2CC2)cnc1N)N1CCOc2c(Cl)c(-c3ccc(F)c4sc(N)c(C#N)c34)c(F)c3nc(OC[C@@]45CCCN4C[C@H](F)C5)nc1c23` [Compound 738, 2-amino-4-(4-((R)-1-(2-amino-5-cyclopropylpyridin-3-yl)ethyl)-8-chloro-10-fluoro-2-(((2R,7aS)-2-fluorotetrahydro-1H-pyrrolizin-7a(5H)-yl)methoxy)-5,6-dihydro-4H-[1,4]oxazepino[5,6,7-de]quinazolin-9-yl)-7-fluorobenzo[b]thiophene-3-carbonitrile], the pIC50 on KRAS WT, at KRAS G12V, on KRAS G12D and on KRAS G12S was at least 5.70 each time.

On to `C[C@H](c1cccnc1N)N1CCOc2c(Cl)c(-c3ccc(F)c4sc(N)c(C#N)c34)c(F)c3nc(OC[C@@]45CCCN4C[C@@]4(CC4(F)F)C5)nc1c23` [Compound 740, 2-amino-4-((R)-4-((R)-1-(2-aminopyridin-3-yl)ethyl)-8-chloro-2-(((1S,7a'S)-2,2-difluorodihydro-1′H,3′H-spiro[cyclopropane-1,2′-pyrrolizin]-7a′ (5′H)-yl)methoxy)-10-fluoro-5,6-dihydro-4H-[1,4]oxazepino[5,6,7-de]quinazolin-9-yl)-7-fluorobenzo[b]thiophene-3-carbonitrile], for which the pIC50 at KRAS WT, on KRAS G12V, at KRAS G12D and on KRAS G12S was at least 5.70 in each case.

As for `C[C@H](c1cccnc1C(F)F)N1CCOc2c(C(F)(F)F)c(-c3ccc(F)c4sc(N)c(C#N)c34)c(F)c3nc(OC[C@@]45CCCN4C[C@H](F)C5)nc1c23` [Compound 747, 2-amino-4-(4-((R)-1-(2-(difluoromethyl)pyridin-3-yl)ethyl)-10-fluoro-2-(((2R,7aS)-2-fluorotetrahydro-1H-pyrrolizin-7a(5H)-yl)methoxy)-8-(trifluoromethyl)-5,6-dihydro-4H-[1,4]oxazepino[5,6,7-de]quinazolin-9-yl)-7-fluorobenzo[b]thiophene-3-carbonitrile], the pIC50 on KRAS WT, at KRAS G12V, at KRAS G12D and on KRAS G12S was at least 5.70 in each case.

As to `C=C[C@H](c1cccnc1N)N1CCOc2c(Cl)c(-c3ccc(F)c4sc(N)c(C#N)c34)c(F)c3nc(OC[C@@]45CCCN4C[C@H](F)C5)nc1c23` [Compound 759, 2-amino-4-(4-((R)-1-(2-aminopyridin-3-yl)allyl)-8-chloro-10-fluoro-2-(((2R,7aS)-2-fluorotetrahydro-1H-pyrrolizin-7a(5H)-yl)methoxy)-5,6-dihydro-4H-[1,4]oxazepino[5,6,7-de]quinazolin-9-yl)-7-fluorobenzo[b]thiophene-3-carbonitrile], the pIC50 on KRAS WT, on KRAS G12V, at KRAS G12D and at KRAS G12S was at least 5.70 each time.

Consider `C[C@H](c1nccnc1N)N1CCOc2c(C(F)(F)F)c(-c3ccc(F)c4sc(N)c(C#N)c34)c(F)c3nc(OC[C@@]45CCCN4C[C@@]4(CC4(F)F)C5)nc1c23` [Compound 773, 2-amino-4-(4-((R)-1-(3-aminopyrazin-2-yl)ethyl)-2-(((1S,7a′S)-2,2-difluorodihydro-1′H,3′H-spiro[cyclopropane-1,2′-pyrrolizin]-7a′(5′H)-yl)methoxy)-10-fluoro-8-(trifluoromethyl)-5,6-dihydro-4H-[1,4]oxazepino[5,6,7-de]quinazolin-9-yl)-7-fluorobenzo[b]thiophene-3-carbonitrile], for which the pIC50 on KRAS WT, at KRAS G12V, at KRAS G12D and at KRAS G12S was at least 5.70 throughout.

As for `C[C@H](c1cccnc1N)N1CCOc2c(C(F)(F)F)c(-c3ccc(F)c4sc(N)c(C#N)c34)c(F)c3nc(OCC4(CN5CCC(F)(F)CC5)CC4)nc1c23` [Compound 778, 2-amino-4-(4-((R)-1-(2-aminopyridin-3-yl)ethyl)-2-((1-((4,4-difluoropiperidin-1-yl)methyl)cyclopropyl)methoxy)-10-fluoro-8-(trifluoromethyl)-5,6-dihydro-4H-[1,4]oxazepino[5,6,7-de]quinazolin-9-yl)-7-fluorobenzo[b]thiophene-3-carbonitrile], the pIC50 at KRAS WT, on KRAS G12V, on KRAS G12D and on KRAS G12S was at least 5.70 in each case.
